Patent publication US9139524B2, “Fluorinated bridged spiro[2.4]heptane derivatives as ALX receptor agonists” (Actelion Pharmaceuticals Ltd., priority 2012, dated 2015)

How the values were obtained:
human ALX receptor = target: T1, human ALX receptor (Homo sapiens, UniProt P25090); assay: Intracellular calcium measurements (FLIPR), ALX receptor agonistic activity; assay type: cell-based; settings: HEK293-hALXR-Gα16 cells; values normalized to WKYMVm 10 nM; read-out: EC50 (agonistic activity with respect to the ALX receptor)
T1 construct: expressed in transfected cells; host or cells: HEK293 (HEK293-hALXR-Gα16)
T1 sequence (P25090 1-351): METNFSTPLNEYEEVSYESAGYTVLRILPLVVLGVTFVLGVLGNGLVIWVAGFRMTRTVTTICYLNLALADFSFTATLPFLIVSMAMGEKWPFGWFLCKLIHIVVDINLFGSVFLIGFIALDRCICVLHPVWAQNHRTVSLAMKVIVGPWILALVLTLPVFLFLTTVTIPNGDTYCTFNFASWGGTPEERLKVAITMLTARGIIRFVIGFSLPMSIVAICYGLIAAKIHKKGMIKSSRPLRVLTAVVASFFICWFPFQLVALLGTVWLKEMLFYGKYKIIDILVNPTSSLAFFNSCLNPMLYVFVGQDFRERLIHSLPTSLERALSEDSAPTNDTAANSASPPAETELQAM
Procedure: The ALX receptor agonistic activities of the compounds of formula (I) are determined in accordance with the following experimental method.
Cells expressing recombinant human ALX receptor and the G-protein Gα16 (HEK293-hALXR-Gα16) were grown to 80% confluency in Growing Medium (GM). Cells were detached from culture dishes with a cell dissociation buffer (Invitrogen, 13151-014), and collected by centrifugation at 1′000 rpm at rt for 5 min in Assay Buffer (AB) (equal parts of Hank's BSS (Gibco, 14065-049) and DMEM without Phenol Red (Gibco, 11880-028)). After 60 min incubation at 37° C. under 5% CO2 in AB supplemented with 1 μM Fluo-4 (AM) (Invitrogen, F14202) and 20 mM HEPES (Gibco, 15630-056), the cells were washed and resuspended in AB. They were then seeded onto 384-well FLIPR assay plates (Greiner, 781091) at 50′000 cells in 70 μl per well and sedimented by centrifugation at 1′000 rpm for 1 min. Stock solutions of test compounds were made up at a concentration of 10 mM in DMSO, and serially diluted in AB to concentrations required for activation dose response curves. WKYMVm (Phoenix Peptides) was used as a reference agonist. A FLIPR Tetra instrument (Molecular Devices) was operated according to the manufacturer's standard instructions, adding 4 μl of test compound dissolved at 10 mM in DMSO and diluted prior to the experiment in assay buffer to obtain the desired final concentration. Changes in fluorescence were monitored before and after the addition of test compounds at lex=488 nm and lem=540 nm. Emission peak values above base level after compounds addition were exported after base line subtraction. Values were normalized to high-level control (WKYMVm compound, 10 nM final concentration) after subtraction of the base line value (AB addition).

[1] = Determination of pharmacokinetic parameters in rats after single oral or intravenous administration; assay type: in vivo; settings: Wistar, plasma, rat, p.o. 1 mg/kg; for bioavailability: oral, calculated with a reference AUC after iv administration of solutions at 1 mg/kg, read-out: F (bioavailability); for AUC: po, read-out: AUC (area under curve after p.o. administration)
Procedure: The goal of the study was to evaluate the pharmacokinetics of compounds after a single oral administration or after an intravenous route in normal, conscious rats.
• Anaesthesia: Wistar rats were pretreated with 0.03 mg/kg Buprenorphine s.c. (an analgesic-stock solution at 0.03 mg/ml) and 30 minutes later they were anaesthetized with a mixture of 90 mg/kg Ketamine and 10 mg/kg Xylazine i.p. or under Isoflurane inhalation anesthesia. • Rat preparation: The top of the head and the neck were shaved and disinfected with Merfen and Betadine. • Surgery: While under (isoflurane) anaesthesia, an incision was made above 1.5 cm at the top of the head (between the ears) in order to fix the anchor button. A second incision was made above 1.5-2 cm on the neck (near the right clavicle). A catheter (ID/DI: 0.508 mm, Ulrich Swiss) was tunnelled with a trocar under the skin and an access port was fixed with 4-0 silk. The catheter was then filled with a heparinized saline solution (100 Ul/ml), clamped with a hemostat to prevent loss of saline, and the wound was closed with tissue adhesive (3M Vetbond). Next, the jugular vein was isolated and ligated cranially with 4-0 silk, a second ligature, placed caudal to the first ligature, was not tightened. Using iridectomy scissors, a V-shaped hole was cut in the vein, and the catheter was gently pushed into the vessel. All ligatures were then tied around the vessel and the catheters. A NaCl-heparin 100 Ul flush was made to test the blood flow. The wound was then closed with tissue adhesive and a suture. Flush again. • Post operative care: After the operation each animal was housed separately in a small box with food (directly on the floor of the box) and water ad libitum and access to solid drink. One to two days were allowed for recovery from surgery prior to the experiment. The day following the operation, animals were flushed with NaCl-heparin 100 Ul/mL and blood collection tubes were prepared with 10 μl EDTA added to each tube. • Experiment: Tested compounds were given at 1 mg/kg orally and intravenously. The oral formulation was as a solution in Gelatine (98% of a 7.5% Gelatine solution in Water and 2% DMSO) and the intravenous formulation was a solution in water with pH adjustment or in cyclodextrine (5% DMSO, 95% HPBCD30% (w/v)). After application of the test-compound (p.o. or i.v.), blood samples ([…]) were taken at different times. The samples were immediately put in ice before being centrifuged (4° C., 8 min, 16000 g). The plasma was then aspirated and placed into a 96 well plate. The plate was kept at −20° C. until analysis could be performed. • Plasma concentration of the compound was determined using a LC-MS/MS method.

Compound	EC50 (human ALX receptor)	bioavailability [1]	AUC [1]
O=C(N[C@H]1CCNC[C@H]1F)[C@H]1[C@H](C(=O)NCc2ccc(Br)cc2F)[C@@H]2CC[C@H]1C21CC1 (mixture of isomers) [Example 4, (1S,2R,3R,4R)—N^2-(4-Bromo-2-fluorobenzyl)-N^3-(cis-3-fluoropiperidin-4-yl)spiro[bicyclo[2.2.1]heptane-7,1′-cyclopropane]-2,3-dicarboxamide]	12.7 nM	–	–
O=C(NC1CCNCC1(F)F)[C@H]1[C@H](C(=O)NCc2ccc(Br)cc2F)[C@@H]2CC[C@H]1C21CC1 (stereo partly drawn) [Example 1, (1S,2R,3R,4R)—N^2-(4-Bromo-2-fluorobenzyl)-N^3-(3,3-difluoropiperidin-4-yl)spiro[bicyclo[2.2.1]heptane-7,1′-cyclopropane]-2,3-dicarboxamide]	41 nM	–	–
O=C(NC1CCNCC1)[C@H]1[C@H](C(=O)NCc2ccc(Br)cc2F)[C@@H]2CC[C@H]1C21CC1 [Reference Example 2, (1S,2R,3R,4R)—N^2-(4-Bromo-2-fluorobenzyl)-N^3-(piperidin-4-yl)spiro[bicyclo[2.2.1]heptane-7,1′-cyclopropane]-2,3-dicarboxamide, reference compound]	–	0.3%	6.34 ng·h/mL

The next lines start with the values.

EC50 (human ALX receptor)	bioavailability [1]	AUC [1]	Compound
300 nM	–	–	O=C(N[C@@H]1CNC[C@@H]1F)[C@H]1[C@H](C(=O)NCc2ccc(Br)cc2F)[C@@H]2CC[C@H]1C21CC1 (mixture of isomers) [Example 5, (1S,2R,3R,4R)—N^2-(4-Bromo-2-fluorobenzyl)-N^3-(cis-4-fluoropyrrolidin-3-yl)spiro[bicyclo[2.2.1]heptane-7,1′-cyclopropane]-2,3-dicarboxamide]
4.5 nM	–	–	O=C(N[C@@H]1CNC[C@H]1F)[C@H]1[C@H](C(=O)NCc2ccc(Br)cc2F)[C@@H]2CC[C@H]1C21CC1 (mixture of isomers) [Example 6, (1S,2R,3R,4R)—N^2-(4-Bromo-2-fluorobenzyl)-N^3-(trans-4-fluoropyrrolidin-3-yl)spiro[bicyclo[2.2.1]heptane-7,1′-cyclopropane]-2,3-dicarboxamide]
1.9 nM	–	–	O=C(N[C@@H]1CCNC[C@H]1F)[C@H]1[C@H](C(=O)NCc2ccc(Br)cc2F)[C@@H]2CC[C@H]1C21CC1 (single isomer, unassigned; diastereoisomer 1) [Example 2]
2 nM	12%	49.9 ng·h/mL	O=C(N[C@@H]1CCNC[C@H]1F)[C@H]1[C@H](C(=O)NCc2ccc(Br)cc2F)[C@@H]2CC[C@H]1C21CC1 (single isomer, unassigned; diastereoisomer 2) [Example 3]
